In brackets after ≈: the same amount, converted by molar mass. Activity calls are given as the source filed them.

This note sets out measurements from ChEMBL document CHEMBL1773059, “NMS-P937, a 4,5-dihydro-1H-pyrazolo[4,3-h]quinazoline derivative as potent and selective Polo-like kinase 1 inhibitor” (Bioorg Med Chem Lett, 2011).

Series [1] is described as follows: Solubility of compound at pH 7. Particulars: buffer. It counts as physicochemical.
In series [2] the target is Serine/threonine-protein kinase PLK2 (Homo sapiens, UniProt Q9NYY3). Nature of the series: Inhibition of PLK2 assessed as [33P]gamma-ATP incorporation into substrate after 60 mins by gamma counting.
Chain of Serine/threonine-protein kinase PLK2 (Q9NYY3 whole entry): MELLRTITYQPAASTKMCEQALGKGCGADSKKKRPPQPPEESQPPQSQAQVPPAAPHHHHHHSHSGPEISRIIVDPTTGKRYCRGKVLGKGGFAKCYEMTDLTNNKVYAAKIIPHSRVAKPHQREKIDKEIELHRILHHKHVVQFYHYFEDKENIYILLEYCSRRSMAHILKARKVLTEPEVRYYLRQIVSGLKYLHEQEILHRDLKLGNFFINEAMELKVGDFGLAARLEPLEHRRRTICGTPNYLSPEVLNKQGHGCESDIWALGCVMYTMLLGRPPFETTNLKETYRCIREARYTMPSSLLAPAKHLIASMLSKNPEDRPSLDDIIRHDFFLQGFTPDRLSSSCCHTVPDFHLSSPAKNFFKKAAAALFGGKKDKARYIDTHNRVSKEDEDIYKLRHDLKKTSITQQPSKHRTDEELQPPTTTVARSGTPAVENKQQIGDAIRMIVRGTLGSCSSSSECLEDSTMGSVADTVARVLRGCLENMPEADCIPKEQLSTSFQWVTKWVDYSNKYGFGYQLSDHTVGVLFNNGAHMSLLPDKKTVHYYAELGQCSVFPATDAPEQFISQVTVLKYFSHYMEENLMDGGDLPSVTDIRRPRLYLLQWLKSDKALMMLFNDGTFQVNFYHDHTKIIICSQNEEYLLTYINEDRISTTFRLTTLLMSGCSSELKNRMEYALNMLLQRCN
A further series concerns A2780. The series can be described thus: Antiproliferative activity against human A2780 cells.
Series [3] deals with Serine/threonine-protein kinase PLK3 (Homo sapiens, UniProt Q9H4B4). Nature of the series: Inhibition of PLK3 assessed as [33P]gamma-ATP incorporation into substrate after 60 mins by gamma counting.
Chain of Serine/threonine-protein kinase PLK3 (Q9H4B4 whole entry): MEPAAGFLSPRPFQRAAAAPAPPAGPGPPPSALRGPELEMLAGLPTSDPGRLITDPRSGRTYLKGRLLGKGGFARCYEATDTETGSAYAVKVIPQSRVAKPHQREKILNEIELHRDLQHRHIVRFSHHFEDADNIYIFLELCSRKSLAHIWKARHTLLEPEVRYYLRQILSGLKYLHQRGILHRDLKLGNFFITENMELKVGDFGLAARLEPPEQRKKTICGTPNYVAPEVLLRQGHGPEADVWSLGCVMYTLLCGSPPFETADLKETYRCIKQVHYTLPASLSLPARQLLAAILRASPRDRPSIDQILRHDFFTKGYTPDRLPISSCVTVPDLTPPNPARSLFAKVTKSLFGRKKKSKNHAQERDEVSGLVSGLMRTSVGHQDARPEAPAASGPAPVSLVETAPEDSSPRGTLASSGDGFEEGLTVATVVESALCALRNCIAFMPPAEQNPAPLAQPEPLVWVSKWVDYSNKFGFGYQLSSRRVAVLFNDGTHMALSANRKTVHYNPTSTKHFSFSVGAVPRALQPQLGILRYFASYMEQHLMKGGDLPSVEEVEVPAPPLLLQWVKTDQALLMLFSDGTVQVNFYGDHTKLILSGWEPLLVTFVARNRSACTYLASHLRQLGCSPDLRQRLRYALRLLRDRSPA
The nature of series [4]: Apparent permeability of the compound by PAMPA assay. It is filed as ADME. On the technique in general: PAMPA measures passive passage across an artificial lipid membrane.
The target of series [5] is Serine/threonine-protein kinase PLK1 (Homo sapiens, UniProt P53350). Nature of the series: Inhibition of PLK1 assessed as [33P]gamma-ATP incorporation into substrate after 60 mins by gamma counting.
Chain of Serine/threonine-protein kinase PLK1 (P53350 whole entry): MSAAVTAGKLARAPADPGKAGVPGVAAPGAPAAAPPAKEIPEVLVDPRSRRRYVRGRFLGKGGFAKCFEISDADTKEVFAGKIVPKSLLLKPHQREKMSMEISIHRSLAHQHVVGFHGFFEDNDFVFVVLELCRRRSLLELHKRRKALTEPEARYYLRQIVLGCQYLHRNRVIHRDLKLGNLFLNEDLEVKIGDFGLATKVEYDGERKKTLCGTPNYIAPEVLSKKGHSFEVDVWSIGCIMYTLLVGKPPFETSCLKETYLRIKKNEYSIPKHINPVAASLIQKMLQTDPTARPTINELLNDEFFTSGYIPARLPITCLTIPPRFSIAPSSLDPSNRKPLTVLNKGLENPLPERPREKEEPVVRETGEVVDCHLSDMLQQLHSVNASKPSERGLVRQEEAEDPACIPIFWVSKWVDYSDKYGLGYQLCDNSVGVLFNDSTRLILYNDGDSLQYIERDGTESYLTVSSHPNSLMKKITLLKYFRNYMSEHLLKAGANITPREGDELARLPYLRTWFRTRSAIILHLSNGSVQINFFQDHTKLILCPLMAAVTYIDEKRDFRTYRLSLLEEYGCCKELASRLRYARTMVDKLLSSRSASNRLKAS
A short description of series [6]: Solubility of compound in 10% Tween 80. It is filed as physicochemical.
Series [7] in a line: Intrinsic clearance in rat hepatocytes at 1 uM. It is filed as ADME, cell-based, Liver, Hepatocyte.
Series [8] is described as follows: Intrinsic clearance in human liver microsomes at 1 uM. It counts as ADME, Microsome.
In a further series the test system is Caco-2. The series can be described thus: Apparent permeability of the compound across human Caco2 cells. It is filed as ADME, cell-based. On the technique in general: Caco-2 cells form a polarised layer with tight junctions and transporters.
The next series deals with CAL-51. The series can be described thus: Cell cycle arrest in human CAL51 cells at 0.1 to 1 uM after 24 hrs by flow cytometry. It is filed as functional, cell-based. In general terms: A flow cytometer gives signals particle by particle.
For series [9], the system named is Mus musculus. Nature of the series: Toxicity in CD1 nu/nu mouse xenografted with human HCT116 cells assessed as reversible body weight loss at 30 mg/kg, iv BID administered on days 1 to 2 in weekly scheduling for 3 cycles measured on day 30. It is filed as organism-based, HCT-116. Also noted: dose 30 mg/kg, route intravenous. Particulars: in vivo.
A further series deals with HCT-116. The series can be described thus: Antitumor activity against human HCT116 cells xenografted in CD1 nu/nu mouse assessed as tumor growth inhibition at 90 mg/kg, po once daily administered on days 1 to 2 daily in weekly scheduling for 4 cycles measured on day 18. Particulars: HCT-116, po, 432 h, read-out: TGI.
Series [10] concerns Mus musculus. The series can be described thus: Toxicity in CD1 nu/nu mouse xenografted with human HCT116 cells assessed as reversible body weight loss at 90 mg/kg, po once daily administered on days 1 to 2 in weekly scheduling for 4 cycles measured on day 15. Particulars: in vivo.
Series [11] can be described thus: Clearance in overnight fasted CD1 nu/nu mouse at 10 mg/kg, iv. Further details: dose 10 mg/kg, route intravenous. It counts as ADME, organism-based. Particulars: in vivo.
A short description of series [12]: AUC (infinity) in overnight fasted CD1 nu/nu mouse at 10 mg/kg, po. It is filed as ADME, organism-based. Further details: time infinity, dose 10 mg/kg, route oral. As to conditions: plasma.
Series [13] in a line: Cmax in overnight fasted CD1 nu/nu mouse at 10 mg/kg, po. It is filed as ADME, organism-based. Further details: dose 10 mg/kg, route oral. Particulars: in vivo.
Series [14] is described as follows: Oral bioavailability in overnight fasted CD1 nu/nu mouse at 10 mg/kg. It counts as ADME, organism-based. As to conditions: in vivo.
Series [15] is described as follows: Volume of distribution at steady state in overnight fasted CD1 nu/nu mouse at 10 mg/kg, iv. It counts as ADME, organism-based. Also noted: dose 10 mg/kg, route intravenous. As to conditions: in vivo, read-out: Vdss.
The nature of series [16]: Half life in overnight fasted CD1 nu/nu mouse at 10 mg/kg, po. It is filed as ADME, organism-based. Further details: dose 10 mg/kg, route oral. Particulars: in vivo.
A short description of series [17]: AUC (infinity) in overnight fasted CD1 nu/nu mouse at 10 mg/kg, iv. It counts as ADME, organism-based. Also noted: time infinity, dose 10 mg/kg, route intravenous. Particulars: plasma.
Series [18] is described as follows: Half life in overnight fasted CD1 nu/nu mouse at 10 mg/kg, iv. It is filed as ADME, organism-based. Further details: dose 10 mg/kg, route intravenous. Particulars: in vivo.

Regarding `CN1CCN(CCCNc2ccc(OC(F)(F)F)c(Nc3ncc4c(n3)-c3c(c(C(N)=O)nn3C)CC4)c2)CC1`, the solubility in [1] came to 186 µM (≈ 104 µg/mL). Also, the IC50 in [2] stood at 1360 nM; in the series on A2780 it was 1640 nM.
Turning to `CN1CCC(C(=O)Nc2ccc(OC(F)(F)F)c(Nc3ncc4c(n3)-c3c(c(C(N)=O)nn3C)CC4)c2)CC1`, the solubility in series [1] was 33 µM (≈ 18 µg/mL). Also, the IC50 is 1500 nM in series [2] and 1350 nM in the series on A2780.
On to `CN1CCN(c2ccc(OC(F)(F)F)c(Nc3ncc4c(n3)-c3c(c(C(N)=O)nn3CCN)CC4)c2)CC1`, for which the IC50 in series [3] is more than 10000 nM; in series [2] it was more than 10000 nM; in [5], 33 nM; in the series on A2780 it was 1310 nM. In series [4], the apparent permeability (Papp) was 5 ×10⁻⁶ cm/s. In series [1], this compound gave a solubility of 202 µM (≈ 107 µg/mL).
In [1], `CN1CCN(c2ccc(OC(F)(F)F)c(Nc3ncc4c(n3)-c3c(c(C(N)=O)nn3C)CC4)c2)[C@@H](CO)C1` returned a solubility of 121 µM (≈ 64.4 µg/mL). The IC50 was more than 10000 nM in series [2] and 598 nM in the series with A2780.
The like results for `CN1CCN(c2ccc(OC(F)(F)F)c(Nc3ncc4c(n3)-c3c(c(C(N)=O)nn3C)CC4)c2)[C@H](CO)C1` were, in that order, 166 µM (≈ 88.4 µg/mL), 1490 nM and 1620 nM.
With `CN1CCC(c2ccc(OC(F)(F)F)c(Nc3ncc4c(n3)-c3c(c(C(N)=O)nn3C)CC4)c2)CC1`, the results for the solubility in [6] and in series [1] were 3800 µg/mL (≈ 7.58 mM) and 203 µM (≈ 102 µg/mL), respectively. In addition, the CLint scaled at 1 µM in series [7] was 603 mL/min/kg; in series [8], 15.9 mL/min/kg. The figures for the IC50 in [3], in series [2] and in series [5] were more than 10000 nM, more than 10000 nM and 6 nM, respectively. Besides, the Papp in series [4] was 36.8 ×10⁻⁶ cm/s; in the series on Caco-2, “permeable”.
Regarding `CN1CCN(c2ccc(OC(F)(F)F)c(Nc3ncc4c(n3)-c3c(c(C(N)=O)nn3CCOC3CCCCO3)CC4)c2)CC1` (stereo not given), the solubility in series [1] turned out to be 35 µM (≈ 21.6 µg/mL). In addition, the IC50 in series [2] was more than 10000 nM.
In [1], `Cn1nc(C(N)=O)c2c1-c1nc(Nc3cc(NC(=O)[C@@H]4CCCN4)ccc3OC(F)(F)F)ncc1CC2` gave a solubility of 79 µM (≈ 40.8 µg/mL). The IC50 worked out at 1450 nM in series [2] and 348 nM with A2780.
For the compound `CN(C)CCCn1nc(C(N)=O)c2c1-c1nc(Nc3cc(N4CCN(C)CC4)ccc3OC(F)(F)F)ncc1CC2`, the IC50 is more than 10000 nM in series [3], more than 10000 nM in series [2], 279 nM in series [5] and 2500 nM with A2780. Also, the solubility in series [1] was 200 µM (≈ 115 µg/mL).
Regarding `CN1CCN(c2ccc(OC(F)(F)F)c(Nc3ncc4c(n3)-c3c(c(C(N)=O)nn3CCO)CC4)c2)CC1`, the outcome with CAL-51 was Active.
For the compound `CN1CCN(c2ccc(OC(F)(F)F)c(Nc3ncc4c(n3)-c3c(c(C(N)=O)nn3CCCN)CC4)c2)CC1`, the IC50 in series [3] is more than 10000 nM; in series [2], more than 10000 nM; in series [5], 52 nM; with A2780, 846 nM. The Papp in series [4] stood at 4 ×10⁻⁶ cm/s. The compound also displayed a solubility in series [1] of 186 µM (≈ 101 µg/mL).
Turning to `CN1CC=C(c2ccc(OC(F)(F)F)c(Nc3ncc4c(n3)-c3c(c(C(N)=O)nn3C)CC4)c2)CC1`, the solubility in series [6] was 3700 µg/mL (≈ 7.41 mM); in series [1], 148 µM (≈ 73.9 µg/mL). In addition, the CLint scaled at 1 µM came to 638 mL/min/kg in [7] and 24.5 mL/min/kg in series [8]. In addition, the Papp was 46.4 ×10⁻⁶ cm/s in series [4] and “permeable” in the series with Caco-2. Moreover, the IC50 in series [2] worked out at 2250 nM; in the series on A2780, 34 nM.
`CCN(CC)CCN(C)c1ccc(OC(F)(F)F)c(Nc2ncc3c(n2)-c2c(c(C(N)=O)nn2C)CC3)c1`: the IC50 in series [3] is more than 10000 nM; in [2], more than 10000 nM; in [5], 60 nM; with A2780, 1140 nM. For the same compound, the concentration in solution in series [1] (solubility) was 162 µM (≈ 86.3 µg/mL).
Consider `CN1CCN(c2ccc(OC(F)(F)F)c(Nc3ncc4c(n3)-c3c(c(C(N)=O)nn3C)CC4)c2)CC1`, for which the Activity in the series on Mus musculus [9] and in the series with Mus musculus [10] was 14% each time. The same compound gave a CLint scaled at 1 µM in series [7] of 600 mL/min/kg. Also, in the series on HCT-116, the inhibition in vivo at 90 mg/kg turned out to be 59%. In addition, the Papp entry with Caco-2 is given as “permeable”.
As for `CN1CCN(c2ccc(OC(F)(F)F)c(Nc3ncc4c(n3)-c3c(c(C(N)=O)nn3CCO)CC4)c2)CC1.Cl`, in [11], the clearance is 39.3 mL/min/kg. Also, the AUC(0-inf) in [12] was 2.04 µM·h; in [17] it was 8.57 µM·h. Moreover, the highest level in series [13] (Cmax) was 640 nM. Besides, the bioavailability in series [14] amounted to 24%. Also, in series [15], the Vd stood at 1.71 L/kg. The half-life in [16] was 1.6 h; in [18], 0.89 h.

What is called solubility is the dissolved amount per volume that the medium holds. Low values mean a poorly soluble substance, high ones a readily soluble substance. For orientation: IC50 means the point on the concentration scale where inhibition reaches its midpoint. What is called Papp is a coefficient for how fast a substance crosses the barrier. The term CLint scaled denotes a measure of how fast metabolising enzymes remove a compound, apart from limits set by blood flow. A high value points to faster metabolism. Usually clearance stands for a measure of how efficiently the substance is removed, as volume per time. For orientation: AUC(0-inf) means the area under the concentration-time curve extrapolated to infinity. Lower therefore signals less exposure. What is called Cmax is the peak of the concentration-time curve. By bioavailability is commonly meant the share of a dose that reaches the circulation, judged against a reference dose that is usually intravenous. For orientation: half-life means the time needed for the level to fall by half in the phase considered. Read a high half-life as slow loss.
